Each structure is given as a SMILES string.

Assay [1] relates to Amblyomma hebraeum or variegatum (nymphs). The assay is described as follows: Arena test in vitro against Amblyomma hebraeum or variegatum (nymphs). Conditions: even up to a dilution of 3.2 μg/cm^2. The procedure:
(§1) This method is carried out in titre plates having 6 wells with a cross-section of 5 cm each, using a computer-supported video system. Each well of the titre plate is lined with a circular filter paper or another suitable carrier material. The substance of formula (I) to be tested is dissolved in methanol, acetonitrile or another suitable solvent, with ultrasound treatment and heating being employed for poorly-soluble substances. In an amount of 1 to 100 μg/cm^2, the dissolved test substance is placed in the centre of the filter paper on a quadrant or circular area of ca. 2.4 cm^2 radius. 4 of the 6 wells are filled with different test substances or with the same test substance in different dilutions (e.g. 1, 3.2, 5, 10 and 20 μg/cm^2) The 5th well is treated with DEET (N,N-diethyl-m-toluamide) as standard substance. The 6th well is filled with the pure solvent and serves as a control. […] In this way, neutral and repellent substances are determined. At the same time, the duration of activity of the test substance is determined and compared with that of the standard. […] This frequency is evaluated statistically and thus quantitatively by the Willcoxon method in a comparison with the control and with the standard. […]

Assay [2] has as its system parasite to be tested, e.g. ticks. The assay can be described thus: Arena test method for testing vermin-repellent substances. Conditions: 1 to 100 μg/cm^2 on filter paper; video evaluation versus control and DEET standard. The procedure: Arena Test Method for Testing Vermin-repellent Substances
This method is carried out in titre plates having 6 wells with a cross-section of 5 cm each, using a computer-supported video system. Each well of the titre plate is lined with a circular filter paper or another suitable carrier material. The substance of formula (I) to be tested is dissolved in methanol, acetonitrile or another suitable solvent, with ultrasound treatment and heating being employed for poorly-soluble substances. In an amount of 1 to 100 μg/cm^2, the dissolved test substance is placed in the centre of the filter paper on a quadrant or circular area of ca. 2.4 cm^2 radius. 4 of the 6 wells are filled with different test substances or with the same test substance in different dilutions (e.g. 1, 3.2, 5, 10 and 20 μg/cm^2) The 5th well is treated with DEET (N,N-diethyl-m-toluamide) as standard substance. The 6th well is filled with the pure solvent and serves as a control. […]
At intervals of 5 seconds, the video camera takes individual pictures of all 6 wells. […] In this way, neutral and repellent substances are determined. At the same time, the duration of activity of the test substance is determined and compared with that of the standard. […] This frequency is evaluated statistically and thus quantitatively by the Willcoxon method in a comparison with the control and with the standard. […]

Assay [3] relates to ticks of the genus Ixodes ricinus. The assay is described as follows: In-vivo comparison on dogs of anti-tick action following spray application. Conditions: Beagle dogs; for anti-tick activity in the course of 3 successive days (in words): single spray application. The source says: In-vivo comparison on dogs in respect of the anti-tick action of 2-propyl-pentanoic acid-bis-(2-methoxyethyl)-amide according to the present invention with DEET (in the form of PARAPIC DOG® (a tick repellent containing DEET)) following spray application.
The following formulations of active ingredient are used in the test which follows: […]
Prior art composition of the Parapic anti-tick spray: • active substance: 15% N,N-Diethyl-3-methylbenzamide (DEET); 15% • ethylbutylacetylaminopropionate (EBMP), isopropanol, methacrylic acid copolymer, carbamide, fragrance (perfume).
Inventive composition of the 2-propyl-pentanoic acid-bis-(2-methoxyethyl )-amide spray: active substance: 2-propyl-pentanoic acid-bis-(2-methoxyethyl )-amide 4.5%; Pluronic F6® 2.0%; water 10.0%, isopropanol ad 100.0%.
The aim of the test is to make a comparison, under natural conditions, of the commercially available anti-vermin product Parapic Dog® with a typical representative of a compound of formula (I), namely 2-propyl-pentanoic acid-bis-(2-methoxyethyl)-amide. According to the packaging information one should reach with Parapic Dog® an 80% anti-tick protection over a period of 48 hours. The active ingredient of Parapic Dog® is DEET, which is the chemical substance N,N-Diethyl-3-methylbenzamide. Products based on the active ingredient DEET, such as Parapic Dog® are widely used against ticks on dogs and cats, and also on humans. Actually, the majority of the currently used anti-tick products is based on DEET, and the mostly used product in dogs is said Parapic Dog®.
Test Protocol: 12 Beagle dogs are divided into groups of 4. To distinguish them, each dog is given a numbered label. Group 1 is treated with a 4.5% 2-propyl-pentanoic acid-bis-(2-methoxy-ethyl)-amide spray (3645mg a.i./m^2). Group 2 is treated with Parapic Dog®-Spray ([…] DEET/3645 mg a.i./m^2). Group 3 remains untreated and serves as a control.
All twelve dogs are taken on 3 successive days to a wooded plot infected with ticks of the genus Ixodes ricinus and are left to run around there. They are free to move around there for 2 hours. An evaluation is made directly after returning from the wood. The two-hour walks are repeated on the next 2 days without the dogs being treated again, and the evaluation is again made directly after returning from the wood. This is effected by carefully searching the fur and the skin of each animal for ticks adhered thereto. The ticks are counted and compared with the number of ticks in the control group.

Assay [4] concerns Boophilus microplus Biarra (larvae). The assay is described as follows: Arena test in vitro against Boophilus microplus Biarra (larvae). The conditions noted are these: even up to a dilution of 3.2 μg/cm^2. The procedure: as §1
Assay [5] deals with Rhipicephalus sanguineus (nymphs). The assay can be described thus: Arena test in vitro against Rhipicephalus sanguineus (nymphs). The conditions noted are these: even up to a dilution of 3.2 μg/cm^2. Here is the method: as §1
A further assay relates to vermin. Conditions: volatilizes rather rapidly; cited from earlier work.

Turning to `CCCC(CCC)C(=O)N(CCOC)CCOC` [Compound no. 1.31, 2-propyl-pentanoic acid-bis-(2-methoxyethyl)-amide], in assay [1], the “long-term action against Amblyomma nymphs” value was “especially marked long-term action”. Also, the “repellent activity in arena test” value in assay [2] is listed as “particularly active”. Besides, the “anti-tick action after 1 day” value in assay [3] (single spray application 3645 mg a.i./m^2, 2 hour walk in tick-infested wood, versus untreated control, after 1 day) was determined as 100%. Also, in assay [3] (single spray application 3645 mg a.i./m^2, 2 hour walk in tick-infested wood, versus untreated control, after 2 days), the “anti-tick action after 2 days” value is recorded as 98%. For the same compound, in assay [3] (single spray application 3645 mg a.i./m^2, 2 hour walk in tick-infested wood, versus untreated control, after 3 days), the “anti-tick action after 3 days” value is reported as 79%. In assay [3], the “anti-tick activity in the course of 3 successive days (in words)” value is on record as “very good results”. Also, the “long-term action against Boophilus larvae” value in assay [4] was “especially marked long-term action”. Moreover, the “long-term action against Rhipicephalus sanguineus nymphs” value in assay [5] is reported as “especially marked long-term action”.
Take `CCN(CC)C(=O)c1cccc(C)c1` [DEET, N,N-diethyl-m-toluamide, reference compound]: in the assay on vermin, the “time after which reapplication is needed” value is “ca. 2 hours”. The “anti-tick activity in the course of 3 successive days (in words)” value in assay [3] is listed as “drops abruptly after 2 days”.
